What was measured:
Experiment in all cases: Kinase Profiling (KINOMEscan)
Assay type in all cases: binding
[1] = target: 456 kinases (of these 395 non-mutant kinases) (Homo sapiens, UniProt P21709); conditions: EPHA1; 10 μM
[2] = target: 456 kinases (of these 395 non-mutant kinases) (Homo sapiens, UniProt Q96PY6); conditions: NEK1; 10 μM
[3] = target: 456 kinases (of these 395 non-mutant kinases) (Homo sapiens, UniProt Q9H4B4); conditions: PLK3; 10 μM
[4] = target: 456 kinases (of these 395 non-mutant kinases) (Homo sapiens, UniProt Q59H18); conditions: TNNI3K; 10 μM
[5] = target: 456 kinases (of these 395 non-mutant kinases) (Homo sapiens, UniProt P31751); conditions: AKT2; 10 μM
[6] = target: 456 kinases (of these 395 non-mutant kinases) (Homo sapiens, UniProt Q9UQB9); conditions: AURKC; 10 μM
[7] = target: 456 kinases (of these 395 non-mutant kinases) (Homo sapiens, UniProt Q9UQM7); conditions: CAMK2A; 10 μM
[8] = target: 456 kinases (of these 395 non-mutant kinases) (Homo sapiens, UniProt Q13546); conditions: RIPK1; 10 μM
[9] = target: 456 kinases (of these 395 non-mutant kinases) (Homo sapiens, UniProt P33981); conditions: TTK; 10 μM
[10] = target: 456 kinases (of these 395 non-mutant kinases) (Homo sapiens, UniProt P10721, D816H); conditions: KIT(D816H); 10 μM
456 kinases (of these 395 non-mutant kinases) (Homo sapiens, UniProt P10721, D816H), sequence (P10721 26-976 D816H limits assumed): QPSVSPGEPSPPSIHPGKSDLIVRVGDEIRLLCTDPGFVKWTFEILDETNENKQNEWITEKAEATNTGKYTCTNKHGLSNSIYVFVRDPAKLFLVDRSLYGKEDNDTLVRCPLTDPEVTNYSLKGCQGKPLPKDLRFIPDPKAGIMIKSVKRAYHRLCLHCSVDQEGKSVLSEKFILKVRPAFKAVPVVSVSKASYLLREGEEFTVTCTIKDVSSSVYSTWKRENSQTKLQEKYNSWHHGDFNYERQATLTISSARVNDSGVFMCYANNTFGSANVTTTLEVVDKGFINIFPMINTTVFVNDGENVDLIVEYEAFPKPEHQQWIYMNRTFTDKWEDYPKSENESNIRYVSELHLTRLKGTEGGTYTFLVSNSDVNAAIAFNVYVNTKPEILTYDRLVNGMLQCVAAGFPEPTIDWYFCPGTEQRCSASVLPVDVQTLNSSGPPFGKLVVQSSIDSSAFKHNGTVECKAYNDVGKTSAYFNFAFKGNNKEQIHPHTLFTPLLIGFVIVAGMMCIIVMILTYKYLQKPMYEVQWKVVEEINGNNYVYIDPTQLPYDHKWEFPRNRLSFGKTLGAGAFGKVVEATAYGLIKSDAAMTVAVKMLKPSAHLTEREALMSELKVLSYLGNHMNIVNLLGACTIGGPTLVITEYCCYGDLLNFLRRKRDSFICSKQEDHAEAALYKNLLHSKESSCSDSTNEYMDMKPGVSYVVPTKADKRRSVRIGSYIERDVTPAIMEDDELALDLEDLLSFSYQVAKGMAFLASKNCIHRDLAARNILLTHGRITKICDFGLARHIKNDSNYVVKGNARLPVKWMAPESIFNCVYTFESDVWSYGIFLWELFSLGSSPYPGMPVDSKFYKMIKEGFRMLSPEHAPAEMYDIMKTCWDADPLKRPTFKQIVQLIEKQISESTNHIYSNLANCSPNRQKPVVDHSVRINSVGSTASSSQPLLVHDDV

[11] = target: 456 kinases (of these 395 non-mutant kinases) (Homo sapiens, UniProt O15146); conditions: MUSK; 10 μM
456 kinases (of these 395 non-mutant kinases) (Homo sapiens, UniProt O15146), sequence (O15146 24-869 limits assumed, change not shown): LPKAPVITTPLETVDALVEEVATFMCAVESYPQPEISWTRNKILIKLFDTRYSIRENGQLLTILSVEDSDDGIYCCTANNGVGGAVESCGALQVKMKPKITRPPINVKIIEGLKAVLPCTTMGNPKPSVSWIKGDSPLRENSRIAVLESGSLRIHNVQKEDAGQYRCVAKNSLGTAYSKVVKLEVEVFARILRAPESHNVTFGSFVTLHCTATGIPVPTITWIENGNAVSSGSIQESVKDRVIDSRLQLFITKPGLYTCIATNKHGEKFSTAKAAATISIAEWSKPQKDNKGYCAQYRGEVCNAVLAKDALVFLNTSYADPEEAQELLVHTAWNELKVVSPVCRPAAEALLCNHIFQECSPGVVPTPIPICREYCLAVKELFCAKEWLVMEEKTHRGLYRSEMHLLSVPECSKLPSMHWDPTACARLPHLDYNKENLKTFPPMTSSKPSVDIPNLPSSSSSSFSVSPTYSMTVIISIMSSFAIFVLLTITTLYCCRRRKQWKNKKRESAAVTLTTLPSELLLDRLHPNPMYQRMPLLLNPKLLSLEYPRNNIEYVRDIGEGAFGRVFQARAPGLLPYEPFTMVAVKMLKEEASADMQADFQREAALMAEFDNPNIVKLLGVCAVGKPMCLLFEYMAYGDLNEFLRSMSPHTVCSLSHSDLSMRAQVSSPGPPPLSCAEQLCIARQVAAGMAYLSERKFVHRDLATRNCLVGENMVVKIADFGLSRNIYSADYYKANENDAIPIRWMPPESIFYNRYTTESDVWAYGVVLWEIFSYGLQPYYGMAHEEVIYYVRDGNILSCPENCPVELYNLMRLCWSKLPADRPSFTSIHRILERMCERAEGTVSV

[12] = target: 456 kinases (of these 395 non-mutant kinases) (Homo sapiens, UniProt O43353); conditions: RIPK2; 10 μM
[13] = target: 456 kinases (of these 395 non-mutant kinases) (Homo sapiens, UniProt Q9Y2H9); conditions: MAST1; 10 μM
[14] = target: 456 kinases (of these 395 non-mutant kinases) (Homo sapiens, UniProt Q9Y2K2); conditions: QSK; 10 μM
[15] = target: 456 kinases (of these 395 non-mutant kinases) (Homo sapiens, UniProt P37173); conditions: TGFBR2; 10 μM
456 kinases (of these 395 non-mutant kinases) (Homo sapiens, UniProt P37173), sequence (P37173 23-567 limits assumed, change not shown): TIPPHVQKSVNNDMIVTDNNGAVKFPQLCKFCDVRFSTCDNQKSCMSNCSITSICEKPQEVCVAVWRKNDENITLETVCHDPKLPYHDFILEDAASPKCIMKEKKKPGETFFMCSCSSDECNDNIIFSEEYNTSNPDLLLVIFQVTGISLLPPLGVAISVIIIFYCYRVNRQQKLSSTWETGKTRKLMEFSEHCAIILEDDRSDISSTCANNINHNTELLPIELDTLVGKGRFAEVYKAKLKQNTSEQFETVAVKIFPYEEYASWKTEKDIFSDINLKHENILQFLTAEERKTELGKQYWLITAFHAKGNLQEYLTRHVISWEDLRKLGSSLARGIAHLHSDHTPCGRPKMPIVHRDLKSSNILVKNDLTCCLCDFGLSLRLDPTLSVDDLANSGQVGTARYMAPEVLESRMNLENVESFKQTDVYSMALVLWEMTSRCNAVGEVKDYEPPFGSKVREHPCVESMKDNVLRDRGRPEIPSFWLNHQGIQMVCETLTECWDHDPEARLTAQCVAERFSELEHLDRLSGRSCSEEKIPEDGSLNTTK

[16] = target: 456 kinases (of these 395 non-mutant kinases) (Homo sapiens, UniProt P42680); conditions: TEC; 10 μM
[17] = target: 456 kinases (of these 395 non-mutant kinases) (Homo sapiens, UniProt P04626); conditions: ERBB2; 10 μM
[18] = target: 456 kinases (of these 395 non-mutant kinases) (Homo sapiens, UniProt P04629); conditions: TRKA; 10 μM
456 kinases (of these 395 non-mutant kinases) (Homo sapiens, UniProt P04629), sequence (P04629 33-796 limits assumed, change not shown): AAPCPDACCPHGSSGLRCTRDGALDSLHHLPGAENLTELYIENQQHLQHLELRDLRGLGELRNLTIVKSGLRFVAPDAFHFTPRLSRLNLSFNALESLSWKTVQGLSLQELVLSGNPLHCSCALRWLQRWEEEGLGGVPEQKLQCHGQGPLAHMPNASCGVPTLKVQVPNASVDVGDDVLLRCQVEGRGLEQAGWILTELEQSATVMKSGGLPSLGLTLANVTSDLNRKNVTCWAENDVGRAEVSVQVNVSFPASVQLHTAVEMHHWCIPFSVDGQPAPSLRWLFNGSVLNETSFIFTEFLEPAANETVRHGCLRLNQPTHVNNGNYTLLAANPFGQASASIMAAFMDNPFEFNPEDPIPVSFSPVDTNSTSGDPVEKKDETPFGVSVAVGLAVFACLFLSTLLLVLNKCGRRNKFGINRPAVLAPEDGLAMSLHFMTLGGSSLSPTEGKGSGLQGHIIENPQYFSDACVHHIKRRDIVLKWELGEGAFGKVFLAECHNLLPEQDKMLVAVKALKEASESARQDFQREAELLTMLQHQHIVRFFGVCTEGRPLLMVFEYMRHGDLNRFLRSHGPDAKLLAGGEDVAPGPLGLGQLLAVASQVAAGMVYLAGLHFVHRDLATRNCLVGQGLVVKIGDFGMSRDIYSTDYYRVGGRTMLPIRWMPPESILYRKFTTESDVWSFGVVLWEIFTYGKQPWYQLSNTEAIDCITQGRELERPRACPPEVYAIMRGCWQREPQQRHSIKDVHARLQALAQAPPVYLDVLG

[19] = target: 456 kinases (of these 395 non-mutant kinases) (Homo sapiens, UniProt O96017); conditions: CHEK2; 10 μM
[20] = target: 456 kinases (of these 395 non-mutant kinases) (Homo sapiens, UniProt P21860); conditions: ERBB3; 10 μM
[21] = target: 456 kinases (of these 395 non-mutant kinases) (Homo sapiens, UniProt Q16816); conditions: PHKG1; 10 μM
[22] = target: 456 kinases (of these 395 non-mutant kinases) (Homo sapiens, UniProt Q86UE8); conditions: TLK2; 10 μM
[23] = target: 456 kinases (of these 395 non-mutant kinases) (Homo sapiens, UniProt P51817); conditions: PRKX; 10 μM
[24] = target: 456 kinases (of these 395 non-mutant kinases) (Homo sapiens, UniProt Q9HC98); conditions: NEK6; 10 μM
[25] = target: 456 kinases (of these 395 non-mutant kinases) (Homo sapiens, UniProt Q8TF76); conditions: HASPIN; 10 μM
[26] = target: 456 kinases (of these 395 non-mutant kinases) (Homo sapiens, UniProt O95835); conditions: LATS1; 10 μM
[27] = target: 456 kinases (of these 395 non-mutant kinases) (Homo sapiens, UniProt Q9NY57); conditions: YANK2; 10 μM
[28] = target: 456 kinases (of these 395 non-mutant kinases) (Homo sapiens, UniProt Q9NRH2); conditions: SNRK; 10 μM
[29] = target: 456 kinases (of these 395 non-mutant kinases) (Homo sapiens, UniProt P07949); conditions: RET; 10 μM
[30] = target: 456 kinases (of these 395 non-mutant kinases) (Homo sapiens, UniProt O14936); conditions: CASK; 10 μM
[31] = target: 456 kinases (of these 395 non-mutant kinases) (Homo sapiens, UniProt P00519, M351T); conditions: ABL1(M351T)-phosphorylated; 10 μM
[32] = target: 456 kinases (of these 395 non-mutant kinases) (Homo sapiens, UniProt P22607); conditions: FGFR3; 10 μM
456 kinases (of these 395 non-mutant kinases) (Homo sapiens, UniProt P22607), sequence (P22607 23-806 limits assumed, change not shown): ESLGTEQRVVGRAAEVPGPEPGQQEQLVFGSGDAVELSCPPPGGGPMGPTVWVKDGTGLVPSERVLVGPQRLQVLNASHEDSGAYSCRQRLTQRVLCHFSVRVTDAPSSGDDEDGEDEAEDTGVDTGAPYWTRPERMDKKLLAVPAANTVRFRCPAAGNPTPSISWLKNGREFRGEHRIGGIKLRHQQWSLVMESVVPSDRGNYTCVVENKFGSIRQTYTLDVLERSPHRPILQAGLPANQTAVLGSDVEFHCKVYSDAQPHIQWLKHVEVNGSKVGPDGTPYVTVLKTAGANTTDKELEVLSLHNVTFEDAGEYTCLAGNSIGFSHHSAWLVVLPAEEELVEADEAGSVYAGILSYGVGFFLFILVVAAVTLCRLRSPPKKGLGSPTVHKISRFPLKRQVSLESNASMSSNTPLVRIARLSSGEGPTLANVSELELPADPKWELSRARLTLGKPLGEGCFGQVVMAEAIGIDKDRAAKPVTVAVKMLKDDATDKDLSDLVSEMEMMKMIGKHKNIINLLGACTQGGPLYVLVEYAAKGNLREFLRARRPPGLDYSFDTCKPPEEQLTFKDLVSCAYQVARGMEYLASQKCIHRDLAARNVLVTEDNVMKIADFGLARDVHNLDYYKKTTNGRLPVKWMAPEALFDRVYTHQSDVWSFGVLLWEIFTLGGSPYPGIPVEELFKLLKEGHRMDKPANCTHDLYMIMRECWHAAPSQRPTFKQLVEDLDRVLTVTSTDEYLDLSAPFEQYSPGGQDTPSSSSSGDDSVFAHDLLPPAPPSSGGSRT

456 kinases (of these 395 non-mutant kinases) (Homo sapiens, UniProt P21709), sequence (P21709 26-976 limits assumed, change not shown): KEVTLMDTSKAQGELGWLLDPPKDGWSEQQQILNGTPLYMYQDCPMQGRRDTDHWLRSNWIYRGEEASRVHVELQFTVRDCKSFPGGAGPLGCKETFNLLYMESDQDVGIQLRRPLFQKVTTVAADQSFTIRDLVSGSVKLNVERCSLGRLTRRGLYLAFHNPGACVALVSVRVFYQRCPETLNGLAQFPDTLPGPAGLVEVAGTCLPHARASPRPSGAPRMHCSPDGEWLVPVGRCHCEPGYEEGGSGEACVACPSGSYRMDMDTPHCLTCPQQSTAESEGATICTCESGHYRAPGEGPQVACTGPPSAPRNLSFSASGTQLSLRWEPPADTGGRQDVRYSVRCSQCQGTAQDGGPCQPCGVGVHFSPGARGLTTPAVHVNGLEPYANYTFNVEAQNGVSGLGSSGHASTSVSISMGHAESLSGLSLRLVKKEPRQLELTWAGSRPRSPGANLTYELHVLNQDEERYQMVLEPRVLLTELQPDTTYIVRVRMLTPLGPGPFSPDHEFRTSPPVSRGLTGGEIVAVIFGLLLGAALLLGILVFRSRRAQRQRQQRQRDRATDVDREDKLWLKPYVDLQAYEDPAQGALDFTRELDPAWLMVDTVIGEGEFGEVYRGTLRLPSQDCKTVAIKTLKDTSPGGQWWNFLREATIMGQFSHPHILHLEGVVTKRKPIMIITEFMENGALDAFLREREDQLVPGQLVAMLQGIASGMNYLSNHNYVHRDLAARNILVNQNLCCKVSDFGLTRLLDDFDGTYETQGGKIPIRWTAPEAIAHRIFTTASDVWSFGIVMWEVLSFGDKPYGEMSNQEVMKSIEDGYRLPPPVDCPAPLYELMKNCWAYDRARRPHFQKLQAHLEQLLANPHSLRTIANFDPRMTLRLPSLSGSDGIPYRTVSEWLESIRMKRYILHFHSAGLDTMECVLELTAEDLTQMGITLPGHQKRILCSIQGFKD

Question: What does the source list for `CCc1ccccc1NC(=O)c1c(C)nsc1Nc1cnc2cc(F)ccc2n1` [Example 20, N-(2-Ethylphenyl)-5-[(6-fluoroquinoxalin-2-yl)amino]-3-methyl-1,2-thiazole-4-carboxamide]?
Answer: % Ctrl @ 10 μM [1]: 95 % Ctrl; % Ctrl @ 10 μM [2]: 100 % Ctrl; % Ctrl @ 10 μM [3]: 92 % Ctrl; % Ctrl @ 10 μM [4]: 85 % Ctrl; % Ctrl @ 10 μM [5]: 90 % Ctrl; % Ctrl @ 10 μM [6]: 73 % Ctrl; % Ctrl @ 10 μM [7]: 88 % Ctrl; % Ctrl @ 10 μM [8]: 99 % Ctrl; % Ctrl @ 10 μM [9]: 72 % Ctrl; % Ctrl @ 10 μM [10]: 97 % Ctrl; % Ctrl @ 10 μM [11]: 91 % Ctrl; % Ctrl @ 10 μM [12]: 66 % Ctrl; % Ctrl @ 10 μM [13]: 67 % Ctrl; % Ctrl @ 10 μM [14]: 91 % Ctrl; % Ctrl @ 10 μM [15]: 100 % Ctrl; % Ctrl @ 10 μM [16]: 100 % Ctrl; % Ctrl @ 10 μM [17]: 77 % Ctrl; % Ctrl @ 10 μM [18]: 100 % Ctrl; % Ctrl @ 10 μM [19]: 100 % Ctrl; % Ctrl @ 10 μM [20]: 99 % Ctrl; % Ctrl @ 10 μM [21]: 70 % Ctrl; % Ctrl @ 10 μM [22]: 94 % Ctrl; % Ctrl @ 10 μM [23]: 75 % Ctrl; % Ctrl @ 10 μM [24]: 100 % Ctrl; % Ctrl @ 10 μM [25]: 100 % Ctrl; % Ctrl @ 10 μM [26]: 100 % Ctrl; % Ctrl @ 10 μM [27]: 100 % Ctrl; % Ctrl @ 10 μM [28]: 100 % Ctrl; % Ctrl @ 10 μM [29]: 88 % Ctrl; % Ctrl @ 10 μM [30]: 87 % Ctrl; % Ctrl @ 10 μM [31]: 90 % Ctrl; % Ctrl @ 10 μM [32]: 85 % Ctrl

From patent US9682995B2, “Amino-substituted isothiazoles” (BAYER PHARMA AKTIENGESELLSCHAFT, priority 2013, dated 2017)
